Assay results as given in PubChem BioAssay AID328 (DTP/NCI, 2004).
Where “and” joins values, the source holds several entries; their conditions need not be identical. Equal values may be shown once. Toxic doses and inconclusive results are not listed. Rule for the calls: active = survival T/C of 150% or more; inactive = T/C below 125% in these data.

Tested on: BDF1 mice, P388 leukemia ip, median survival T/C
Test: NCI In Vivo Anticancer Drug Screen. Data for tumor model P388 Leukemia (intraperitoneal) in B6D2F1 (BDF1) mice
Details: endpoint: median survival time, higher = longer survival
In short: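 Compound-treated tumour-bearing mice were compared with vehicle-treated controls. Survival was recorded, and the value is the treated-group measurement divided by the control-group measurement (T/C).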

[1] = dose: 50.0 mg/kg/injection, schedule: Q01DX009 (ip), vehicle: saline with Tween-80
[2] = dose: 100.0 mg/kg/injection, schedule: Q04DX003 (ip), vehicle: saline with Tween-80
[3] = dose: 200.0 mg/kg/injection, schedule: Q04DX003 (ip), vehicle: saline with Tween-80
[4] = dose: 400.0 mg/kg/injection, schedule: Q04DX003 (ip), vehicle: saline with Tween-80
[5] = dose: 25.0 mg/kg/injection, schedule: Q01DX009 (ip), vehicle: Klucel (hydroxypropylcellulose) (HPC)
[6] = dose: 50.0 mg/kg/injection, schedule: Q01DX009 (ip), vehicle: Klucel (hydroxypropylcellulose) (HPC)
[7] = dose: 100.0 mg/kg/injection, schedule: Q01DX009 (ip), vehicle: Klucel (hydroxypropylcellulose) (HPC)
[8] = dose: 100.0 mg/kg/injection, schedule: Q04DX003 (ip), vehicle: Klucel (hydroxypropylcellulose) (HPC)
[9] = dose: 200.0 mg/kg/injection, schedule: Q01DX009 (ip), vehicle: Klucel (hydroxypropylcellulose) (HPC)
[10] = dose: 200.0 mg/kg/injection, schedule: Q04DX003 (ip), vehicle: Klucel (hydroxypropylcellulose) (HPC)
[11] = dose: 400.0 mg/kg/injection, schedule: Q04DX003 (ip), vehicle: Klucel (hydroxypropylcellulose) (HPC)
[12] = dose: 100.0 mg/kg/injection, schedule: Q01DX009 (ip), vehicle: saline with Tween-80
[13] = dose: 200.0 mg/kg/injection, schedule: Q01DX009 (ip), vehicle: saline with Tween-80
[14] = dose: 50.0 mg/kg/injection, schedule: Q01DX009 (ip), vehicle: saline
[15] = dose: 50.0 mg/kg/injection, schedule: Q04DX003 (ip), vehicle: saline with Tween-80
[16] = dose: 50.0 mg/kg/injection, schedule: Q04DX003 (ip), vehicle: saline
[17] = dose: 100.0 mg/kg/injection, schedule: Q04DX003 (ip), vehicle: saline

Measured: T/C

CCCCCC1=NC(C)(C(=O)OC)OO1 (centres undefined)
inactive: dose: 25.0 mg/kg/injection, schedule: Q01DX009 (ip), vehicle: saline with Tween-80 114 % of control | [1] 112 % of control

CC(C)(C)c1cc(C(=O)O)c(Sc2c(C(=O)O)cc(C(C)(C)C)cc2C(C)(C)O)c(C(C)(C)O)c1
inactive: dose: 100.0 mg/kg/injection, schedule: Q01DX001 (ip), vehicle: saline with Tween-80 101 % of control | dose: 200.0 mg/kg/injection, schedule: Q01DX001 (ip), vehicle: saline with Tween-80 101 % of control | dose: 400.0 mg/kg/injection, schedule: Q01DX001 (ip), vehicle: saline with Tween-80 113 % of control

COc1ccc2ccccc2c1/C=N/N1CCCCC1
inactive: [2] 110 % of control | [3] 95 % of control | [4] 115 % of control

Clc1cc(Cl)c2c(c1)COCO2
inactive: [5] 104 % of control | [6] 100 % of control | [7] 109 % of control | [8] 90 % of control | [9] 90 % of control | [10] 100 % of control | [11] 100 % of control

NCCNc1c[nH]c(=O)[nH]c1=O
inactive: [1] 110 % of control | [12] 103 % of control | [13] 103 % of control

Oc1ccccc1-c1nnc2sc3c(Cl)c4nn5c(-c6ccccc6O)nnc5sc4c(Cl)c3nn12
inactive: [1] 98 % of control | [12] 98 % of control | [13] 96 % of control

COc1cccc(CCNC(=O)CC#N)c1
inactive: [12] 100 % of control | [2] 110 % of control | [13] 110 % of control | [3] 100 % of control | dose: 400.0 mg/kg/injection, schedule: Q01DX009 (ip), vehicle: saline with Tween-80 100 % of control | [4] 100 % of control

C[CH2][Ge]1([CH2]C)[CH2]CC2(CCN(CCCN(C)C)C2)C[CH2]1
inactive: dose: 0.5 mg/kg/injection, schedule: Q01DX009 (ip), vehicle: saline 105 % of control | dose: 1.0 mg/kg/injection, schedule: Q01DX009 (ip), vehicle: saline 102 % of control | dose: 2.0 mg/kg/injection, schedule: Q01DX009 (ip), vehicle: saline 103 % of control | dose: 4.0 mg/kg/injection, schedule: Q01DX009 (ip), vehicle: saline 104 % of control and 118 % of control | dose: 8.0 mg/kg/injection, schedule: Q01DX009 (ip), vehicle: saline 102 % of control | dose: 16.0 mg/kg/injection, schedule: Q01DX009 (ip), vehicle: saline 103 % of control | dose: 32.0 mg/kg/injection, schedule: Q01DX009 (ip), vehicle: saline 100 % of control | [14] 102 % of control | dose: 60.0 mg/kg/injection, schedule: Q01DX009 (ip), vehicle: saline with Tween-80 92 % of control | dose: 64.0 mg/kg/injection, schedule: Q01DX009 (ip), vehicle: saline 91 % of control

C1CN1P1(N2CC2)=NP(N2CC2)(N2CC2)=NP(N2CC2)(N2CC2)=N1
active: dose: 2.1 mg/kg/injection, schedule: Q01DX009 (ip), vehicle: saline 154 % of control | dose: 3.3 mg/kg/injection, schedule: Q01DX009 (ip), vehicle: saline 180 % of control and 203 % of control and 204 % of control | dose: 5.0 mg/kg/injection, schedule: Q01DX009 (ip), vehicle: saline 190 % of control and 218 % of control | dose: 7.5 mg/kg/injection, schedule: Q01DX009 (ip), vehicle: saline 265 % of control and 272 % of control and 153 % of control
inactive: dose: 0.61 mg/kg/injection, schedule: Q01DX009 (ip), vehicle: saline 109 % of control | dose: 0.92 mg/kg/injection, schedule: Q01DX009 (ip), vehicle: saline 118 % of control

CC(=O)n1ncc2ccc([N+](=O)[O-])cc21
inactive: dose: 6.25 mg/kg/injection, schedule: Q01DX009 (ip), vehicle: water 103 % of control | dose: 12.5 mg/kg/injection, schedule: Q01DX009 (ip), vehicle: water 97 % of control and 111 % of control | dose: 25.0 mg/kg/injection, schedule: Q01DX009 (ip), vehicle: water 94 % of control (2×) and 108 % of control | dose: 50.0 mg/kg/injection, schedule: Q01DX009 (ip), vehicle: water 94 % of control and 99 % of control | dose: 100.0 mg/kg/injection, schedule: Q01DX009 (ip), vehicle: water 94 % of control and 97 % of control and 105 % of control | dose: 100.0 mg/kg/injection, schedule: Q04DX003 (ip), vehicle: water 111 % of control | dose: 200.0 mg/kg/injection, schedule: Q01DX009 (ip), vehicle: water 100 % of control | dose: 200.0 mg/kg/injection, schedule: Q04DX003 (ip), vehicle: water 106 % of control | dose: 400.0 mg/kg/injection, schedule: Q01DX009 (ip), vehicle: water 96 % of control | dose: 400.0 mg/kg/injection, schedule: Q04DX003 (ip), vehicle: water 98 % of control

CCCCCCCCCCOc1ccc(C=O)c(OC)c1
inactive: dose: 100.0 mg/kg/injection, schedule: Q01DX001 (ip), vehicle: Klucel (hydroxypropylcellulose) (HPC) 100 % of control | dose: 200.0 mg/kg/injection, schedule: Q01DX001 (ip), vehicle: Klucel (hydroxypropylcellulose) (HPC) 100 % of control | dose: 400.0 mg/kg/injection, schedule: Q01DX001 (ip), vehicle: Klucel (hydroxypropylcellulose) (HPC) 104 % of control

OC(CBr)(c1ccccc1)c1ccccc1
inactive: dose: 12.5 mg/kg/injection, schedule: Q04DX003 (ip), vehicle: saline with Tween-80 95 % of control | [15] 100 % of control and 115 % of control | [2] 99 % of control | [3] 112 % of control | [4] 111 % of control

Cc1c2c(cc3c1[nH]c1ccccc13)C=NCC2
inactive: [1] 93 % of control | [12] 99 % of control | [13] 101 % of control

CN(C)c1ccc2c(Cl)cc(Cl)nc2c1
inactive: dose: 12.5 mg/kg/injection, schedule: Q01DX009 (ip), vehicle: Klucel (hydroxypropylcellulose) (HPC) 109 % of control | [5] 109 % of control | [6] 111 % of control | [7] 117 % of control | [9] 107 % of control

c1ccc(C([CH2][Hg][CH2]C(c2ccccc2)c2ccccc2)c2ccccc2)cc1
inactive: dose: 100.0 mg/kg/injection, schedule: Q01DX009 (ip), vehicle: other 100 % of control | [8] 100 % of control | dose: 200.0 mg/kg/injection, schedule: Q01DX009 (ip), vehicle: other 104 % of control | [10] 116 % of control | dose: 400.0 mg/kg/injection, schedule: Q01DX009 (ip), vehicle: other 114 % of control | [11] 100 % of control

O=C(CC(C(=O)c1ccccc1)N1CC1)c1ccccc1 (centres undefined)
inactive: [15] 90 % of control | [2] 90 % of control

Cc1cc([N+](=O)[O-])cc(C)c1OC(=O)c1ccc(N=C(N)N)cc1
inactive: dose: 6.25 mg/kg/injection, schedule: Q01DX009 (ip), vehicle: saline 93 % of control | dose: 12.5 mg/kg/injection, schedule: Q01DX009 (ip), vehicle: saline 101 % of control | dose: 12.5 mg/kg/injection, schedule: Q04DX003 (ip), vehicle: saline 104 % of control | dose: 25.0 mg/kg/injection, schedule: Q01DX009 (ip), vehicle: saline 97 % of control | dose: 25.0 mg/kg/injection, schedule: Q04DX003 (ip), vehicle: saline 102 % of control | [14] 95 % of control | [16] 101 % of control | [17] 95 % of control

O=C(OC(c1ccccc1)(C(F)(F)F)C(F)(F)F)c1cccc(Cl)c1
inactive: [1] 104 % of control | [12] 109 % of control | [13] 118 % of control

COCCOP(=O)(N1CC1)N1CC1
inactive: [17] 118 % of control
active: dose: 33.0 mg/kg/injection, schedule: Q04DX003 (ip), vehicle: saline 190 % of control | [16] 236 % of control | dose: 75.0 mg/kg/injection, schedule: Q04DX003 (ip), vehicle: saline 272 % of control

CCOC(=O)CC(=Nc1ccccc1OC)C(=O)OCC
inactive: [7] 86 % of control | [8] 104 % of control | [9] 86 % of control | [10] 95 % of control | dose: 400.0 mg/kg/injection, schedule: Q01DX009 (ip), vehicle: Klucel (hydroxypropylcellulose) (HPC) 104 % of control | [11] 95 % of control

O=[N+]([O-])c1ccc(-n2[nH]nnc2=S)cc1
inactive: [15] 107 % of control | [2] 104 % of control | [4] 95 % of control

O=C(c1ccccc1)C(SSC(C(=O)c1ccccc1)C(=O)c1ccccc1)C(=O)c1ccccc1
inactive: [1] 100 % of control | [12] 112 % of control | [13] 103 % of control
